Source: patent US20060211697A1, “2-(2 Or 4-substituted aryloxy)-phenol derivatives as antibacterial agents” (priority 2004, published 2006)
Values after ≈ are worked out from the molar mass of the structure shown. Where two headings read alike, the source gives them in different places.

What was measured:
[1] = tested on: E. coli 43888; experiment: MIC, broth dilution method, E. coli; type: cell-based
Protocol: (§1) Minimum Inhibition Concentration (MIC), Broth Dilution Method:
(§2) The compounds of the present invention were tested against an assortment of Gram positive and Gram negative organisms using standard microtitration techniques well known to those skilled in the art. Cultures of bacteria are initially brought up from the freezer by streaking a loopful onto agar plates under the appropriate conditions. For instance bacterial stocks are streaked onto chocolate agar and then incubated for 18 hours at 35-37° C. in a 5% CO2 incubator. Five to ten colonies are picked from the chocolate agar plate for subculture to Brain-Heart infusion (BHI) broth, Mueller Hinton broth, or BHI containing 4% serum and incubated under the appropriate conditions. The ability of the test compound to act as an antimicrobial is determined by the ability to inhibit bacterial growth in vitro. The optical density of the culture of organisms in the presence of an active compound is compared to the optical density of the same organism untreated. The activity of the compounds is described as either negative or the lowest concentration inhibiting growth (Minimum Inhibitory Concentration [MIC]).

[2] = tested on: H. influenzae 43095; experiment: MIC, broth dilution method, H. influenzae; type: cell-based
Protocol: as §1, §2

[3] = tested on: S. pneumoniae 11733; experiment: MIC, broth dilution method, S. pneumoniae; type: cell-based
Protocol: as §1, §2

[4] = tested on: S. aureus 29213; experiment: MIC, broth dilution method, S. aureus; type: cell-based
Protocol: as §1, §2

[5] = Escherichia coli, 43888, Gram-negative bacteria, in vitro, broth dilution, read-out: MIC E. coli 43888
[6] = Haemophilus influenzae, 43095, Gram-negative bacteria, in vitro, broth dilution, read-out: MIC H. influenzae 43095
[7] = Streptococcus pneumoniae, 11733, Gram-positive bacteria, in vitro, broth dilution, read-out: MIC S. pneumoniae 11733
[8] = Staphylococcus aureus, 29213, Gram-positive bacteria, in vitro, broth dilution, read-out: MIC S. aureus 29213

Row | SMILES | melting point [°C] | MIC [1, 5] [µg/mL] | MIC [2, 6] [µg/mL] | MIC [3, 7] [µg/mL] | MIC [4, 8] [µg/mL] | further results
1 | Cc1ccc(Oc2ccc(-n3cccc3)cc2)c(O)c1 | 95 to 96 | – | – | – | – | –
2 | Cc1ccc(Oc2ccc(-c3ccsc3)cc2O)c(O)c1 | 143 to 145 | – | – | – | – | –
3 | N/C(=N\O)c1ccccc1Oc1ccc(F)cc1O | 64 to 65 | – | – | – | – | –
4 | Cc1ccc(Oc2ccccc2/C(N)=N/O)c(O)c1 | 85 to 87 | – | – | – | – | –
5 | CCOC(=O)c1nc(-c2ccccc2Oc2ccc(F)cc2O)no1 | 82 to 83 | – | – | – | – | –
6 | O=C(O)c1nc(-c2ccccc2Oc2ccc(F)cc2O)no1 | 127 to 128 | – | – | – | – | –
7 | Cc1ccc(Oc2ccc([N+](=O)[O-])cc2-c2ncon2)c(O)c1 | 159 to 160 | – | – | – | – | –
8 | Cc1ccc(Oc2ccccc2-c2noc(=O)[nH]2)c(O)c1 | 213 to 214 | – | – | – | – | –
9 | Cc1ccc(Oc2ccc(-c3noc(=O)[nH]3)cc2)c(O)c1 | 195 to 198 | – | – | – | – | –
10 | COC(=O)C1CSC(c2ccc(Oc3ccc(C)cc3O)cc2)N1 (centres unmarked) | 134 to 135 | – | – | – | – | –
11 | COC(=O)c1cn(-c2ccccc2Oc2ccc(C)cc2O)nn1 | 153 to 155 | – | – | – | – | –
12 | COC(=O)c1cn(-c2ccc(Oc3ccc(C)cc3O)cc2)nn1 | 148 to 151 | – | – | – | – | –
13 | CCOC(=O)c1cnn(-c2ccccc2Oc2ccc(C)cc2O)c1 | 118 to 119 | – | – | – | – | –
14 | Cc1ccc(Oc2ccc(-c3ccco3)cc2O)c(O)c1 [Example 4, 2-(2-Hydroxy-4-methyl-phenoxy)-5-(furan-2-yl)-phenol] | – | 0.5 (≈ 1.77 µM) | 7.9 (≈ 28 µM) | 1 (≈ 3.54 µM) | 2 (≈ 7.08 µM) | –
15 | Oc1cc(F)ccc1Oc1ccc(-c2ccco2)cc1O [Example 12, 5-(Furan-2-yl)-2-(4-fluoro-2-hydroxy-phenoxy)-phenol] | – | 2 (≈ 6.99 µM) | 7.9 (≈ 27.6 µM) | 0.5 (≈ 1.75 µM) | 4 (≈ 14 µM) | –
16 | Cc1ccc(Oc2ccc([N+](=O)[O-])cc2-c2nnn[nH]2)c(O)c1 [Example 16, 5-Methyl-2-[4-nitro-2-(1H-tetrazol-5-yl)-phenoxy]-phenol and 5-methyl-2-[4-nitro-2-(2H-tetrazol-5-yl)-phenoxy]-phenol] | – | 31.3 (≈ 99.9 µM) | 31.3 (≈ 99.9 µM) | 7.9 (≈ 25.2 µM) | 2 (≈ 6.38 µM) | –
17 | Oc1cc(F)ccc1Oc1ccc(Cl)cc1-c1nnn[nH]1 [Example 18, 2-[4-Chloro-2-(1H-tetrazol-5-yl)-phenoxy]-5-fluoro-phenol and 2-[4-chloro-2-(2H-tetrazol-5-yl)-phenoxy]-5-fluoro-phenol] | – | 7.9 (≈ 25.8 µM) | 4 (≈ 13 µM) | 0.25 (≈ 0.815 µM) | 0.125 (≈ 0.408 µM) | –
18 | Oc1cc(Cl)ccc1Oc1ccc(Cl)cc1-c1nnn[nH]1 [Example 19, 5-chloro-2-[4-Chloro-2-(1H-tetrazol-5-yl)-phenoxy]-phenol and 5-chloro-2-[4-chloro-2-(2H-tetrazol-5-yl)-phenoxy]-phenol] | – | 4 (≈ 12.4 µM) | 2 (≈ 6.19 µM) | 2 (≈ 6.19 µM) | 0.125 (≈ 0.387 µM) | –

Row | SMILES | melting point [°C] | MIC [1, 5] [µg/mL] | MIC [2, 6] [µg/mL] | MIC [3, 7] [µg/mL] | MIC [4, 8] [µg/mL] | further results
19 | Oc1ccccc1Oc1ccccc1-c1nnn[nH]1 [Example 20, 2-[2-(1H-Tetrazol-5-yl)-phenoxy]-phenol and 2-[2-(2H-tetrazol-5-yl)-phenoxy]-phenol] | – | 2 (≈ 7.87 µM) | 4 (≈ 15.7 µM) | 4 (≈ 15.7 µM) | 0.25 (≈ 0.983 µM) | –
20 | Cc1ccc(Oc2ccc(-c3nnc(N)o3)cc2)c(O)c1 [Example 24, 2-[4-(5-Amino-[1,3,4]oxadiazol-2-yl)-phenoxy]-5-methyl-phenol] | – | 6.2 (≈ 21.9 µM) | 12.5 (≈ 44.1 µM) | 12.5 (≈ 44.1 µM) | 0.8 (≈ 2.82 µM) | –
21 | Cc1ccc(Oc2ccc(/C(N)=N/O)cc2)c(O)c1 [Example 30, N-Hydroxy-4-(2-hydroxy-4-methyl-phenoxy)-benzamidine] | – | 0.5 (≈ 1.94 µM) | 31.3 (≈ 121 µM) | 62.5 (≈ 242 µM) | 4 (≈ 15.5 µM) | –
22 | Cc1ccc(Oc2ccccc2-c2noc(C(=O)O)n2)c(O)c1 [Example 37, 3-[2-(2-Hydroxy-4-methyl-phenoxy)-phenyl]-[1,2,4]oxadiazole-5-carboxylic acid] | – | 0.5 (≈ 1.6 µM) | 0.5 (≈ 1.6 µM) | 8 (≈ 25.6 µM) | 0.125 (≈ 0.4 µM) | –
23 | Cc1ccc(Oc2ccc([N+](=O)[O-])cc2-c2noc(C(=O)O)n2)c(O)c1 [Example 39, 3-[2-(2-Hydroxy-4-methyl-phenoxy)-5-nitro-phenyl]-[1,2,4]oxadiazole-5-carboxylic acid] | – | 4 (≈ 11.2 µM) | 8 (≈ 22.4 µM) | > 32 | 0.5 (≈ 1.4 µM) | –
24 | Cc1ccc(Oc2ccc(-c3noc(C(=O)O)n3)cc2)c(O)c1 [Example 40, 3-[4-(2-Hydroxy-4-methyl-phenoxy)-phenyl]-[1,2,4]oxadiazole-5-carboxylic acid] | – | 8 (≈ 25.6 µM) | 4 (≈ 12.8 µM) | 16 (≈ 51.2 µM) | 4 (≈ 12.8 µM) | –
25 | Oc1cc(F)ccc1Oc1ccccc1-c1ncon1 [Example 42, 5-Fluoro-2-(2-[1,2,4]oxadiazol-3-yl-phenoxy)-phenol] | – | 1 (≈ 3.67 µM) | 1 (≈ 3.67 µM) | > 32 | 1 (≈ 3.67 µM) | –
26 | Cc1ccc(Oc2ccccc2-c2ncon2)c(O)c1 [Example 43, 5-Methyl-2-(2-[1,2,4]oxadiazol-3-yl-phenoxy)-phenol] | – | 0.5 (≈ 1.86 µM) | 4 (≈ 14.9 µM) | 15.7 (≈ 58.5 µM) | 0.5 (≈ 1.86 µM) | –
27 | Oc1cc(F)ccc1Oc1ccc(Cl)cc1-c1ncon1 [Example 44, 2-(4-Chloro-2-[1,2,4]oxadiazol-3-yl-phenoxy)-5-fluoro-phenol] | – | 2 (≈ 6.52 µM) | 2 (≈ 6.52 µM) | > 32 | 0.5 (≈ 1.63 µM) | –
28 | Cc1ccc(Oc2ccc(-c3ncon3)cc2)c(O)c1 [Example 45, 5-Methyl-2-(4-[1,2,4]oxadiazol-3-yl-phenoxy)-phenol] | – | 1 (≈ 3.73 µM) | 4 (≈ 14.9 µM) | 1 (≈ 3.73 µM) | 0.5 (≈ 1.86 µM) | –
29 | CCOC(=O)c1nc(-c2ccccc2Oc2ccc(Cl)cc2O)no1 [Example 51, 3-[2-(4-Chloro-2-hydroxy-phenoxy)-phenyl]-[1,2,4]oxadiazole-5-carboxylic acid ethyl ester] | – | 6.2 (≈ 17.2 µM) | 3.1 (≈ 8.59 µM) | > 25 | 0.4 (≈ 1.11 µM) | –
30 | O=C(O)c1nc(-c2ccccc2Oc2ccc(Cl)cc2O)no1 [Example 54, 3-[2-(4-Chloro-2-hydroxy-phenoxy)-phenyl]-[1,2,4]oxadiazole-5-carboxylic acid] | – | 0.2 (≈ 0.601 µM) | 0.2 (≈ 0.601 µM) | 3.1 (≈ 9.32 µM) | 0.05 (≈ 0.15 µM) | –
31 | Oc1cc(Cl)ccc1Oc1ccccc1-c1ncon1 [Example 57, 5-Chloro-2-(2-[1,2,4]oxadiazol-3-yl-phenoxy)-phenol] | – | 0.05 (≈ 0.173 µM) | 0.05 (≈ 0.173 µM) | 6.2 (≈ 21.5 µM) | 0.05 (≈ 0.173 µM) | –
32 | Cc1ccc(Oc2ccccc2NN)c(O)c1 [Example 66, 2-(2-Hydrazino-phenoxy)-5-methyl-phenol] | – | – | – | – | – | MIC ([1]; Escherichia coli, 43888, read-out: MIC E. coli 43888): 0.8 µg/mL (≈ 3.47 µM); MIC ([2]; Haemophilus influenzae, 43095, read-out: MIC H. influenzae 43095): 0.1 µg/mL (≈ 0.434 µM); MIC ([3]; Streptococcus pneumoniae, 11733, read-out: MIC S. pneumoniae 11733): 3.1 µg/mL (≈ 13.5 µM); MIC ([4]; Staphylococcus aureus, 29213, read-out: MIC S. aureus 29213): 0.1 µg/mL (≈ 0.434 µM)
33 | Cc1ccc(Oc2ccc(NN)cc2)c(O)c1 [Example 67, 2-(4-Hydrazino-phenoxy)-5-methyl-phenol] | – | 0.4 (≈ 1.74 µM) | 0.1 (≈ 0.434 µM) | 6.2 (≈ 26.9 µM) | 0.1 (≈ 0.434 µM) | –
34 | CCOC(=O)c1cnn(-c2ccc(Oc3ccc(C)cc3O)cc2)c1 [Example 69, 1-[4-(2-Hydroxy-4-methyl-phenoxy)-phenyl]-1H-pyrazole-4-carboxylic acid ethyl ester] | – | 1.6 (≈ 4.73 µM) | > 25 | > 25 | 0.2 (≈ 0.591 µM) | –
35 | Cc1ccc(Oc2ccc(-n3cc(C(=O)O)cn3)cc2)c(O)c1 [Example 71, 1-[4-(2-Hydroxy-4-methyl-phenoxy)-phenyl]-1H-pyrazole-4-carboxylic acid] | – | > 25 | 25 (≈ 80.6 µM) | 12.5 (≈ 40.3 µM) | 3.1 (≈ 9.99 µM) | –
